Structures are written as SMILES.

T1 sequence (Q04759 whole entry): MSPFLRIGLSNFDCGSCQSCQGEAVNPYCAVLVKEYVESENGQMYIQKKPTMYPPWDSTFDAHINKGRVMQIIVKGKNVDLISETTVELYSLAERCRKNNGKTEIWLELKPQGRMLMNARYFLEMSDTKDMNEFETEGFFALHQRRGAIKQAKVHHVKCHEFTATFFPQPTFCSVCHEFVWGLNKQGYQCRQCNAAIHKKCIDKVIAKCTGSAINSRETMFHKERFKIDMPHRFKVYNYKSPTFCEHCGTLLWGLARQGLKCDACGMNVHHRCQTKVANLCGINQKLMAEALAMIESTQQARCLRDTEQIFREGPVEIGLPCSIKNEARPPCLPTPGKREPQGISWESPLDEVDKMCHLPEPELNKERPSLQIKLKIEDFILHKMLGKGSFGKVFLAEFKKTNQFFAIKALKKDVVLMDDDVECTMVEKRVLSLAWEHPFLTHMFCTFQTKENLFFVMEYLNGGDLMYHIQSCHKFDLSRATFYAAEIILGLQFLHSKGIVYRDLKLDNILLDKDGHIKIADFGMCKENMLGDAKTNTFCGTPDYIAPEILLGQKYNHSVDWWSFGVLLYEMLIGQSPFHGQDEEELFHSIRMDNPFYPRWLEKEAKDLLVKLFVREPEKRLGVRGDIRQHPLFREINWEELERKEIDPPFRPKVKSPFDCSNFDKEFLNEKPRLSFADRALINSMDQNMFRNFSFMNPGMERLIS

The first experiment has as its target T1, His-PKC-theta (Homo sapiens, UniProt Q04759).
T1 construct: His; purchased Invitrogen
As to the kind of experiment: PKC-theta Assay (384-well time resolved fluorescence, IMAP TR-FRET). Format: biochemical. As to conditions: Table 2; read-out: Act. Level (IC50 in the PKC-theta Assay). As for the experimental part:
PKC-theta Assay. A 384-well time resolved fluorescence assay was used to monitor PKC-theta activity. The PKC-theta assay was run in the following assay buffer: 50 mM HEPES pH 7.6, 10 mM MgCl2, 1 mM DTT, 0.01% Triton X-100, 0.01% BSA and 0.1 mM EDTA. To initiate the reaction, 200 nM of Fam-labeled S6-derived peptide (Molecular Devices) and 10 μM of ATP were mixed with 142 pM of His-PKC-theta (Invitrogen) for a total assay volume of 25 μL in each well. The assay was incubated at room temperature for 2 hours and terminated using a 60 μL/well mixture of Detection Binding Solution: 70% IMAP Progressive Binding Buffer A, 30% IMAP Progressive Binding Buffer B, 1:600 Progressive Binding Reagent, and 1:400 TR-FRET Tb Donor (Molecular Devices). The assay plates were then incubated overnight at room temperature and read on a Perkin-Elmer Envision Reader.
For `CC1(C)[C@@H](O)C[C@H]1Nc1nc(NCCc2ccc(Cl)c(Cl)c2)ncc1C#N` [Cmpd 107], the IC50 was in the range of 100 to 800 nM.
Same read-out and setting: under `Cc1nnnn1-c1ccccc1CCNc1ncc(C#N)c(N[C@@H]2CC[C@H](O)C(C)(C)C2)n1` [Cmpd 168] stands 2000 to 10000 nM.
Take `CC1(C)C[C@@H](O)CC[C@@H]1Nc1nc(NCCc2cccc(Cl)c2)ncc1C#N` [Cmpd 187]: the IC50 was in the range of 2000 to 10000 nM.
Same read-out and setting: with `CC1(C)C[C@H](Nc2nc(NCCc3cc(F)cc(Cl)c3)ncc2C#N)CC[C@@H]1O` [Cmpd 184] the figure was under 100 nM; with `COc1cc(CCNc2ncc(C#N)c(N[C@@H]3C[C@H](O)C3(C)C)n2)ccc1O` [Cmpd 104], 2000 to 10000 nM; with `CC(=O)Nc1ccc(CCNc2ncc(C#N)c(N[C@@H]3CC[C@H](O)C(C)(C)C3)n2)cc1` [Cmpd 130], 100 to 800 nM.
Same read-out and setting: with `C[C@H](CNc1ncc(C#N)c(N[C@@H]2C[C@H](O)C2(C)C)n1)c1ccccc1` [Cmpd 42] the figure was 100 to 800 nM.
Still for that read-out and setting: under `CC1(C)C[C@H](Nc2nc(NCCc3ccc(F)cc3)ncc2C#N)CC[C@@H]1O` [Cmpd 93] stands 100 to 800 nM; under `COCCOc1ccc(CCNc2ncc(C#N)c(N[C@@H]3CC[C@H](O)C(C)(C)C3)n2)cc1` [Cmpd 62], 100 to 800 nM.
Consider `Cc1ccc(CCNc2ncc(C#N)c(N[C@@H]3CC[C@H](O)C(C)(C)C3)n2)cc1C` [Cmpd 35], for which the IC50 is under 100 nM.
On the same count and under the same terms, with `CC1(C)C[C@H](Nc2nc(NCCc3ccc(N4CCCCC4)cc3)ncc2C#N)CC[C@@H]1O` [Cmpd 83] the figure was 100 to 800 nM; with `CC1(C)[C@@H](O)C[C@H]1Nc1nc(NCCc2ccc(C(F)(F)F)cc2)ncc1C#N` [Cmpd 46], 800 to 2000 nM; with `CC1(C)[C@@H](O)C[C@H]1Nc1nc(NCCc2ccc(F)cc2)ncc1C#N` [Cmpd 102], 100 to 800 nM.
Take `CC1(C)[C@@H](O)C[C@H]1Nc1nc(NCCc2ccccc2OC(F)F)ncc1C#N` [Cmpd 136]: the IC50 was in the range of 100 to 800 nM.
`CC1(C)C[C@H](Nc2nc(NCCc3ccc(OC4CCCC4)cc3)ncc2C#N)CC[C@@H]1O` [Cmpd 51]: the IC50 lay within 100 to 800 nM.
With `CC1(C)C[C@H](Nc2nc(NCCc3ccccc3OC(F)(F)F)ncc2C#N)CC[C@@H]1O` [Cmpd 55], the IC50 was in the range of 100 to 800 nM.
On the same count and under the same terms, with `COc1cc(CCNc2ncc(C#N)c(N[C@@H]3CC[C@H](O)C(C)(C)C3)n2)ccc1O` [Cmpd 95] the figure was 100 to 800 nM; with `CC1(C)C[C@H](Nc2nc(NCCc3ccc(Cl)cc3)ncc2C#N)CC[C@@H]1O` [Cmpd 33], 100 to 800 nM.
With `CC1(C)C[C@H](Nc2nc(NCCc3cccc(F)c3)ncc2C#N)CC[C@@H]1O` [Cmpd 196], the IC50 is under 100 nM.
As for `CNC(=O)c1cccc(CCNc2ncc(C#N)c(N[C@@H]3C[C@H](O)C3(C)C)n2)c1` [Cmpd 135], the IC50 was in the range of 800 to 2000 nM.
In the case of `N#Cc1cnc(NCc2ccccc2N2CCOCC2)nc1N[C@H]1CC[C@@H](O)CC1` [Cmpd 13], the IC50 was 800 to 2000 nM.
On the same count and under the same terms, under `CC1(C)[C@@H](Nc2nc(NCCc3cccc(Cl)c3)ncc2C#N)C[C@H]1C(N)=O` [Cmpd 164] stands 100 to 800 nM; under `Cc1nnnn1-c1ccccc1CNc1ncc(C#N)c(N[C@@H]2CC[C@@H](O)C(C)(C)C2)n1` [Cmpd 18], 2000 to 10000 nM; under `CC1(C)[C@@H](O)C[C@H]1Nc1nc(NCCc2ccc(C#N)c(Br)c2)ncc1C#N` [Cmpd 145], 100 to 800 nM.
Consider `COc1cccc(CCNc2ncc(C#N)c(N[C@@H]3C[C@H](O)C3(C)C)n2)c1OC` [Cmpd 105], for which the IC50 fell in the range of 800 to 2000 nM.
Same read-out and setting: under `CC1(C)C[C@H](Nc2nc(NCCc3ccc(CO)cc3)ncc2C#N)CC[C@@H]1O` [Cmpd 57] stands 100 to 800 nM; under `CC1(C)C[C@H](Nc2nc(NCCc3ccc(S(=O)(=O)C(F)(F)F)cc3)ncc2C#N)CC[C@@H]1O` [Cmpd 185], 100 to 800 nM.
As to `CNC(=O)c1cccc(CCNc2ncc(C#N)c(N[C@@H]3CC[C@H](O)C(C)(C)C3)n2)c1` [Cmpd 131], the IC50 lay in the range of 800 to 2000 nM.
Same read-out and setting: under `N#Cc1cnc(NCCc2cccc(F)c2)nc1N[C@H]1CC[C@@H](O)CC1` [Cmpd 198] stands 100 to 800 nM; under `CC1(C)C[C@H](Nc2nc(NCCc3cc(Cl)ccc3S(N)(=O)=O)ncc2C#N)CC[C@@H]1O` [Cmpd 193], 100 to 800 nM.
The same measure, in the same setting: with `N#Cc1cnc(NCCc2ccc(F)c(Cl)c2)nc1N[C@H]1CC[C@@H](C(N)=O)CC1` [Cmpd 90] the figure was under 100 nM.
For the compound `CC1(C)C[C@H](Nc2nc(NCCc3ccccc3)ncc2C#N)CC[C@@H]1O` [Cmpd 150], the IC50 was under 100 nM.
Still for that read-out and setting: under `CC1(C)[C@@H](O)C[C@H]1Nc1nc(NCCc2ccc(N3CCCCC3)cc2)ncc1C#N` [Cmpd 114] stands 800 to 2000 nM; under `Cc1nnnn1-c1ccccc1CNc1ncc(C#N)c(NC2CCC(O)C(C)(C)C2)n1` (centres unmarked) [Cmpd 1], under 100 nM; under `CC1(C)C[C@H](Nc2nc(NCCc3ccccc3OC(F)F)ncc2C#N)CC[C@@H]1O` [Cmpd 132], 100 to 800 nM.

Still in this experiment, the particulars now being: read-out: Act. Level (IC50 in the PKC-theta Assay).
In the case of `N#Cc1cnc(NCCC2C(=O)Nc3ccccc32)nc1N[C@H]1CC[C@@H](O)CC1` (some centres unmarked) [Cmpd 155], the IC50 fell in the range of 100 to 800 nM.
On to `CCOc1ncncc1CNc1ncc(C(F)(F)F)c(N[C@@H]2C[C@H](O)C2(C)C)n1` [Cmpd 57], for which the IC50 was under 100 nM.
Still for that read-out and setting: under `CC(F)(F)COc1ncncc1CNc1ncc(C#N)c(N[C@H]2C[C@H](O)C2(C)C)n1` [Cmpd 121] stands 100 to 800 nM; under `C[C@@H]1CC[C@H](Nc2nc(NCc3cnccc3C(F)(F)F)ncc2C#N)C[C@H]1O` [Cmpd 87], under 100 nM; under `N#Cc1ccc2[nH]cc(CCNc3ncc(C#N)c(N[C@H]4CC[C@@H](O)CC4)n3)c2c1` [Cmpd 163], 2000 to 10000 nM.
On to `CC1(C)C[C@H](Nc2nc(NCc3c[n+]([O-])ccc3C(F)(F)F)ncc2C(F)(F)F)CC[C@@H]1O` [Cmpd 40], for which the IC50 was under 100 nM.
Still for that read-out and setting: with `CC1(C)C[C@H](Nc2nc(NCc3cncnc3C(F)(F)F)ncc2C#N)CC[C@H]1O` [Cmpd 159] the figure was 100 to 800 nM; with `Cc1[nH]c2c(F)cc(F)cc2c1CCNc1ncc(C#N)c(N[C@H]2CC[C@@H](O)CC2)n1` [Cmpd 149], 2000 to 10000 nM; with `CCc1ncncc1CNc1ncc(C#N)c(N[C@H]2C[C@@H](O)C2(C)C)n1` [Cmpd 123], 100 to 800 nM.
Consider `COC1CC(Nc2nc(NCc3cnccc3C(F)(F)F)ncc2C(F)(F)F)C1(C)C` (centres unmarked) [Cmpd 102], for which the half-maximal inhibitory concentration (IC50) was 100 to 800 nM.
In the case of `COC1CC(Nc2nc(NCc3cnccc3C(F)(F)F)ncc2C(F)(F)F)C1(C)C` (centres unmarked) [Cmpd 3], the IC50 is under 100 nM.
Regarding `Cc1ccc2c(CCNc3ncc(C#N)c(N[C@@H]4CC[C@H](O)C(C)(C)C4)n3)c[nH]c2c1` [Cmpd 174], the IC50 is 800 to 2000 nM.
Still for that read-out and setting: under `CC1(C)C[C@H](Nc2nc(NCc3cncnc3OCCC(F)(F)F)ncc2C#N)CC[C@@H]1O` [Cmpd 6] stands under 100 nM.
Turning to `C[C@@H]1CC[C@H](Nc2nc(NCc3cnccc3C(F)(F)F)ncc2C(F)(F)F)C[C@H]1O` [Cmpd 63], the IC50 is under 100 nM.
Still for that read-out and setting: with `CC1(C)[C@H](O)C[C@H]1Nc1nc(NCc2cncnc2OCCC(F)(F)F)ncc1C(F)(F)F` [Cmpd 125] the figure was under 100 nM.
As to `CC(C)(CO)CNc1nc(NCc2cnccc2C(F)(F)F)ncc1C#N` [Cmpd 129], the 50% inhibitory concentration (IC50) was in the range of 100 to 800 nM.
Take `CC(F)(F)COc1ncncc1CNc1ncc(C#N)c(NC23CCC(O)(CC2)CC3)n1` [Cmpd 156]: the IC50 was 800 to 2000 nM.
The same measure, in the same setting: under `CC1(C)C[C@H](Nc2nc(NCCc3n[nH]c4ccccc34)ncc2C#N)CC[C@@H]1O` [Cmpd 176] stands 800 to 2000 nM; under `Cc1[nH]c2ccc(C#N)cc2c1CCNc1ncc(C#N)c(N[C@H]2CC[C@@H](O)CC2)n1` [Cmpd 148], 2000 to 10000 nM; under `CCOc1ncncc1CNc1ncc(C#N)c(N[C@@H]2C[C@H](O)C2(C)C)n1` [Cmpd 58], under 100 nM.
Same read-out and setting: under `CCc1ccc2c(c1)C(CCNc1ncc(C#N)c(N[C@H]3CC[C@@H](C(N)=O)CC3)n1)C(=O)N2` (some centres unmarked) [Cmpd 180] stands under 100 nM.
Still for that read-out and setting: with `CC1(C)[C@@H](O)C[C@H]1Nc1nc(NCCc2cccc3cccnc23)ncc1C#N` [Cmpd 190] the figure was 2000 to 10000 nM; with `CC1(C)[C@H](O)C[C@H]1Nc1nc(NCc2cncnc2-c2ccc(F)cc2)ncc1C#N` [Cmpd 93], 100 to 800 nM; with `CNC(=O)[C@H]1CC[C@@H](Nc2nc(NCc3cnccc3C(F)(F)F)ncc2C(F)(F)F)CC1` [Cmpd 17], under 100 nM.
With `CC(F)(F)COc1ncncc1CNc1ncc(C(F)(F)F)c(N[C@@H]2C[C@H](O)C2(C)C)n1` [Cmpd 13], the IC50 is under 100 nM.
For the compound `CC1(C)C[C@H](Nc2nc(NCCc3c[nH]c4ccc(F)cc34)ncc2C#N)CC[C@@H]1O` [Cmpd 181], the IC50 was 100 to 800 nM.
On the same count and under the same terms, under `CC1(C)C[C@H](Nc2nc(NCCc3ncon3)ncc2C#N)CC[C@@H]1O` [Cmpd 191] stands 2000 to 10000 nM; under `N#Cc1cnc(NCCc2c[nH]c3ccc(F)cc23)nc1N[C@H]1CC[C@@H](C(N)=O)CC1` [Cmpd 178], under 100 nM; under `CC1(C)[C@H](O)C[C@@H]1Nc1nc(NCc2cncnc2-c2ccc(F)cc2)ncc1C(F)(F)F` [Cmpd 97], 100 to 800 nM.
Consider `N#Cc1cnc(NCc2cncnc2C(F)(F)F)nc1N[C@H]1CC[C@@H](O)CC1` [Cmpd 96], for which the IC50 was 100 to 800 nM.
Take `CC(C)(F)c1ncncc1CNc1ncc(C(F)(F)F)c(N[C@@H]2C[C@H](O)C2(C)C)n1` [Cmpd 1]: the IC50 is under 100 nM.
The same measure, in the same setting: under `CC(F)(F)c1ncncc1CNc1ncc(C#N)c(N[C@@H]2CC[C@H](O)C(C)(C)C2)n1` [Cmpd 36] stands under 100 nM.
Same read-out and setting: under `CC1(C)[C@@H](O)C[C@H]1Nc1nc(NCCc2cccs2)ncc1C#N` [Cmpd 189] stands 100 to 800 nM.

The term IC50 denotes the concentration that gives 50% inhibition.

These data come from patent publication US9783505B2, “Substituted diaminopyrimidyl compounds, compositions thereof, and methods of treatment therewith” (Signal Pharmaceuticals, LLC, priority 2013, dated 2017).
